Assay results: ChEMBL document CHEMBL4808202, “Evaluation of artemisinin derivative artemether as a fluconazole potentiator through inhibition of Pdr5” (2021)
Calls of active or inactive are those of the source. The calls are words filed in the database; no cut-off is given here.

Assays:
[1] = test system: Candida albicans; assay: Antifungal activity against Candida albicans SC5314 assessed as inhibition of fungal growth by measuring decrease in OD600 at 100 microM measured after 24 hrs by absorbance based analysis; type: functional
[2] = test system: Candida albicans; assay: Potentiation of amphotericin B-induced antifungal activity against Candida albicans SC5314 assessed as fungal growth at 100 microM measured after 24 hrs in presence of amphotericin B by absorbance based analysis relative to amphotericin B-treated control; type: functional
[3] = test system: Candida albicans; assay: Potentiation of micafungin-induced antifungal activity against Candida albicans SC5314 assessed as fungal growth at 100 microM measured after 24 hrs in presence of micafungin by absorbance based analysis relative to micafungin-treated control; type: functional
[4] = test system: Candida albicans; assay: Potentiation of fluconazole-induced antifungal activity against Candida albicans SC5314 assessed as fungal growth at 100 microM measured after 24 hrs in presence of fluconazole by absorbance based analysis relative to fluconazole-treated control; type: functional
[5] = test system: Candida albicans; assay: Antifungal activity against Candida albicans SC5314 assessed as inhibition of fungal filamentation in YEPD containing 10% serum medium at 100 uM incubated for 1 hr by microscopic analysis; type: functional, organism-based
[6] = test system: Candida albicans; assay: Antifungal activity against Candida albicans SC5314 assessed as inhibition of fungal filamentation in Spider medium at 100 uM incubated for 1 hr by microscopic analysis; type: functional, organism-based
[7] = test system: Candida albicans; assay: Potentiation of fluconazole-induced antifungal activity against Candida albicans SC5314 assessed as inhibition of fungal filamentation by measuring reduction in fungal hyphae growth in YEPD containing 10% serum medium at 100 uM incubated for 1 hr in presence of fluconazole by microscopic analysis; type: functional, organism-based
[8] = test system: Candida albicans; assay: Potentiation of fluconazole-induced antifungal activity against Candida albicans SC5314 assessed as inhibition of fungal filamentation by measuring reduction in fungal hyphae growth in Spider medium at 100 uM incubated for 1 hr in presence of fluconazole by microscopic analysis; type: functional, organism-based
[9] = test system: Candida albicans; assay: Antifungal activity against fluconazole-resistant Candida albicans CNL011 assessed as fungal growth at 100 uM measured after 24 hrs by absorbance based analysis relative to vehicle-treated control; type: functional
[10] = test system: Candida albicans; assay: Antifungal activity against fluconazole-resistant Candida albicans CNL012 assessed as fungal growth at 100 uM measured after 24 hrs by absorbance based analysis relative to vehicle-treated control; type: functional
[11] = test system: Candida albicans; assay: Recovery of fluconazole susceptibility against fluconazole-resistant Candida albicans CNL011 assessed as inhibition of fungal growth at 100 uM measured every 15 mins for 24 hrs by absorbance based analysis; type: functional, organism-based
[12] = test system: Candida albicans; assay: Recovery of fluconazole susceptibility against fluconazole-resistant Candida albicans CNL012 assessed as inhibition of fungal growth at 100 uM measured every 15 mins for 24 hrs by absorbance based analysis; type: functional, organism-based
[13] = test system: [Candida] auris; assay: Antifungal activity against Candida auris NL002 assessed as fungal growth at 100 uM measured after 24 hrs by absorbance based analysis relative to vehicle-treated control; type: functional, Candidozyma auris
[14] = test system: Candida tropicalis; assay: Antifungal activity against Candida tropicalis NL001 assessed as fungal growth at 100 uM measured after 24 hrs by absorbance based analysis relative to vehicle-treated control; type: functional
[15] = test system: Candida parapsilosis; assay: Antifungal activity against Candida parapsilosis NL001 assessed as fungal growth at 100 uM measured after 24 hrs by absorbance based analysis relative to vehicle-treated control; type: functional
[16] = test system: Saccharomyces cerevisiae; assay: Antifungal activity against Saccharomyces cerevisiae BY4742 assessed as inhibition of fungal growth at 100 uM measured after 24 hrs by absorbance based analysis relative to vehicle-treated control; type: functional
[17] = test system: [Candida] auris; assay: Potentiation of fluconazole-induced antifungal activity against Candida auris NL002 assessed as fungal growth at 100 uM measured after 24 hrs in presence of fluconazole by absorbance based analysis relative to vehicle-treated control; type: functional, Candidozyma auris
[18] = test system: Candida tropicalis; assay: Potentiation of fluconazole-induced antifungal activity against Candida tropicalis NL001 assessed as fungal growth at 100 uM measured after 24 hrs in presence of fluconazole by absorbance based analysis relative to vehicle treated control; type: functional
[19] = test system: Candida parapsilosis; assay: Potentiation of fluconazole-induced antifungal activity against Candida parapsilosis NL001 assessed as fungal growth at 100 uM measured after 24 hrs in presence of fluconazole by absorbance based analysis relative to vehicle-treated control; type: functional
[20] = test system: [Candida] auris; assay: Potentiation of fluconazole-induced antifungal activity against Candida auris NL002 assessed as fungal growth at 100 uM measured after 24 hrs in presence of fluconazole by absorbance based analysis relative to fluconazole-treated control; type: functional, Candidozyma auris
[21] = test system: Candida tropicalis; assay: Potentiation of fluconazole-induced antifungal activity against Candida tropicalis NL001 assessed as fungal growth at 100 uM measured after 24 hrs in presence of fluconazole by absorbance based analysis relative to fluconazole-treated control; type: functional
[22] = test system: Candida parapsilosis; assay: Potentiation of fluconazole-induced antifungal activity against Candida parapsilosis NL001 assessed as fungal growth at 100 uM measured after 24 hrs in presence of fluconazole by absorbance based analysis relative to fluconazole-treated control; type: functional
[23] = test system: Saccharomyces cerevisiae; assay: Potentiation of fluconazole-induced antifungal activity against Saccharomyces cerevisiae BY4742 assessed as inhibition of fungal growth at 100 uM measured after 24 hrs in presence of fluconazole by absorbance based analysis relative to fluconazole-treated control; type: functional
[24] = test system: Cryptococcus neoformans; assay: Antifungal activity against Cryptococcus neoformans H99 assessed as inhibition of fungal growth at 0.2 uM measured every 15 mins for 24 hrs by absorbance based analysis; type: functional, organism-based
[25] = test system: Cryptococcus neoformans; assay: Potentiation of fluconazole-induced antifungal activity against Cryptococcus neoformans H99 assessed as inhibition of fungal growth at 0.2 uM measured every 15 mins for 24 hrs in presence of fluconazole by absorbance based analysis; type: functional, organism-based
[26] = test system: Saccharomyces cerevisiae; assay: Antifungal activity against Saccharomyces cerevisiae BY4742 assessed as fungal growth at 1600 uM measured after 24 hrs by absorbance based analysis relative to control; type: functional
[27] = test system: Saccharomyces cerevisiae; assay: Antifungal activity against Saccharomyces cerevisiae harboring adp1 delta mutant assessed as fungal growth at 1600 uM measured after 24 hrs by absorbance based analysis relative to control; type: functional
[28] = test system: Saccharomyces cerevisiae; assay: Antifungal activity against Saccharomyces cerevisiae harboring aus1 delta mutant assessed as fungal growth at 1600 uM measured after 24 hrs by absorbance based analysis relative to control; type: functional
[29] = test system: Saccharomyces cerevisiae; assay: Antifungal activity against Saccharomyces cerevisiae harboring bpt1 delta mutant assessed as fungal growth at 1600 uM measured after 24 hrs by absorbance based analysis relative to control; type: functional
[30] = test system: Saccharomyces cerevisiae; assay: Antifungal activity against Saccharomyces cerevisiae harboring nft1 delta mutant assessed as fungal growth at 1600 uM measured after 24 hrs by absorbance based analysis relative to control; type: functional
[31] = test system: Saccharomyces cerevisiae; assay: Antifungal activity against Saccharomyces cerevisiae harboring pdr5 delta mutant assessed as fungal growth at 1600 uM measured after 24 hrs by absorbance based analysis relative to control; type: functional
[32] = test system: Saccharomyces cerevisiae; assay: Antifungal activity against Saccharomyces cerevisiae harboring pdr10 delta mutant assessed as fungal growth at 1600 uM measured after 24 hrs by absorbance based analysis relative to control; type: functional
[33] = test system: Saccharomyces cerevisiae; assay: Antifungal activity against Saccharomyces cerevisiae harboring pdr11 delta mutant assessed as fungal growth at 1600 uM measured after 24 hrs by absorbance based analysis relative to control; type: functional
[34] = test system: Saccharomyces cerevisiae; assay: Antifungal activity against Saccharomyces cerevisiae harboring pdr12 delta mutant assessed as fungal growth at 1600 uM measured after 24 hrs by absorbance based analysis relative to control; type: functional
[35] = test system: Saccharomyces cerevisiae; assay: Antifungal activity against Saccharomyces cerevisiae harboring pdr15 delta mutant assessed as fungal growth at 1600 uM measured after 24 hrs by absorbance based analysis relative to control; type: functional
[36] = test system: Saccharomyces cerevisiae; assay: Antifungal activity against Saccharomyces cerevisiae harboring snq2 delta mutant assessed as fungal growth at 1600 uM measured after 24 hrs by absorbance based analysis relative to control; type: functional
[37] = test system: Saccharomyces cerevisiae; assay: Antifungal activity against Saccharomyces cerevisiae harboring vmr1 delta mutant assessed as fungal growth at 1600 uM measured after 24 hrs by absorbance based analysis relative to control; type: functional
[38] = test system: Saccharomyces cerevisiae; assay: Antifungal activity against Saccharomyces cerevisiae harboring ybt1 delta mutant assessed as fungal growth at 1600 uM measured after 24 hrs by absorbance based analysis relative to control; type: functional
[39] = test system: Saccharomyces cerevisiae; assay: Antifungal activity against Saccharomyces cerevisiae harboring ycf1 delta mutant assessed as fungal growth at 1600 uM measured after 24 hrs by absorbance based analysis relative to control; type: functional
[40] = test system: Saccharomyces cerevisiae; assay: Antifungal activity against Saccharomyces cerevisiae harboring ynr070w delta mutant assessed as fungal growth at 1600 uM measured after 24 hrs by absorbance based analysis relative to control; type: functional
[41] = test system: Saccharomyces cerevisiae; assay: Antifungal activity against Saccharomyces cerevisiae harboring yol075c delta mutant assessed as fungal growth at 1600 uM measured after 24 hrs by absorbance based analysis relative to control; type: functional
[42] = test system: Saccharomyces cerevisiae; assay: Antifungal activity against Saccharomyces cerevisiae harboring yor1 delta mutant assessed as fungal growth at 1600 uM measured after 24 hrs by absorbance based analysis relative to control; type: functional
[43] = test system: Saccharomyces cerevisiae; assay: Potentiation of fluconazole-induced antifungal activity against Saccharomyces cerevisiae BY4741 assessed as fungal growth at 100 uM measured after 24 hrs by absorbance based analysis relative to fluconazole-treated control; type: functional
[44] = test system: Saccharomyces cerevisiae; assay: Potentiation of fluconazole-induced antifungal activity against Saccharomyces cerevisiae YNL033 overexpressing PDR5 assessed as fungal growth at 100 uM measured after 24 hrs by absorbance based analysis relative to fluconazole-treated control; type: functional
[45] = test system: Candida albicans; assay: Potentiation of fluconazole-induced antifungal activity against Candida albicans CNL002 harboring cdr1 delta mutant assessed as inhibition of fungal growth at 100 uM measured after 24 hrs by absorbance based analysis; type: functional, organism-based
[46] = test system: Saccharomyces cerevisiae; assay: Inhibition of PDR5 in Saccharomyces cerevisiae BY4742 assessed as inhibition of R6G efflux incubated for 4 hrs followed by R6G addition and measured after 1.5 hrs by fluorescence based analysis; settings: dose 100-400 µM, time 5.5 hrs
[47] = test system: Saccharomyces cerevisiae; assay: Inhibition of PDR5 in Saccharomyces cerevisiae BY4742 assessed as inhibition of R6G efflux at 400 uM incubated for 4 hrs followed by R6G addition and measured after 1.5 hrs by fluorescence based analysis; settings: time 5.5 hrs
[48] = test system: Saccharomyces cerevisiae BY4741; assay: Inhibition of PDR5 in Saccharomyces cerevisiae BY4741 assessed as intracellular accumulation of fluconazole at 400 uM measured per gm of cells after 4 hrs by HPLC analysis (reference value: 11.3 nmol); type: cell-based
[49] = test system: Saccharomyces cerevisiae; assay: Increase in intracellular fluconazole accumulation in Saccharomyces cerevisiae YNL032 harboring pdr5 deletion mutant at 400 uM measured after 4 hrs by HPLC analysis; type: functional, cell-based
[50] = test system: Saccharomyces cerevisiae; assay: Antifungal activity against Saccharomyces cerevisiae YNL013 harboring pdr5 delta mutant assessed as inhibition of fungal growth at 100 uM measured after 24 hrs by absorbance based analysis; type: functional, organism-based

## CO[C@H]1O[C@@H]2O[C@@]3(C)CC[C@H]4[C@H](C)CC[C@@H]([C@H]1C)[C@@]24OO3 [ARTEMETHER]
[1]
  inhibition at 100 µM: 10.1%
[2]
  Activity: 96.1%
[3]
  Activity: 95.2%
[4]
  Activity: 52.6%
[5]
  Activity: inactive
[6]
  Activity: inactive
[7]
  Activity: Active
[8]
  Activity: Active
[9]
  Activity: 86.9%
[10]
  Activity: 91.6%
[11]
  Activity: Active
[12]
  Activity: Active
[13]
  Activity: 57.6%
[14]
  Activity: 88.1%
[15]
  Activity: 68.6%
[16]
  inhibition at 100 µM: 45.8%
[17]
  Activity: 44.7%
[18]
  Activity: 83.3%
[19]
  Activity: 41.5%
[20]
  Activity: 48.4%
[21]
  Activity: 81.9%
[22]
  Activity: 41.5%
[23]
  inhibition at 100 µM: 68.8%
[24]
  Activity: Active
[25]
  Activity: Active
[26]
  Activity: 71.9%
[27]
  Activity: 68%
[28]
  Activity: 71%
[29]
  Activity: 71.8%
[30]
  Activity: 72.3%
[31]
  Activity: 29.8%
[32]
  Activity: 67.1%
[33]
  Activity: 77.8%
[34]
  Activity: 71.2%
[35]
  Activity: 70.2%
[36]
  Activity: 67.5%
[37]
  Activity: 65.6%
[38]
  Activity: 69.2%
[39]
  Activity: 60.3%
[40]
  Activity: 72.7%
[41]
  Activity: 67.9%
[42]
  Activity: 75.4%
[43]
  Activity: 76.5%
[44]
  Activity: 70.9%
[45]
  Activity: Active
[46]
  inhibition: Dose-Dependent Effect
[47]
  inhibition: Active
[48]
  Activity: 13.1 nmol
[49]
  Activity: Active
[50]
  Activity: Active

## C[C@@H]1CC[C@H]2[C@@H](C)C(=O)O[C@@H]3O[C@@]4(C)CC[C@@H]1[C@]32OO4 [ARTEMISININ]
[1]
  inhibition at 100 µM: 4.9%
[2]
  Activity: 96.1%
[3]
  Activity: 97.7%
[4]
  Activity: 22.6%
[5]
  Activity: inactive
[6]
  Activity: inactive
[7]
  Activity: Active
[8]
  Activity: Active

## C[C@H]1[C@H](OC(=O)CCC(=O)O)O[C@@H]2O[C@@]3(C)CC[C@H]4[C@H](C)CC[C@@H]1[C@@]24OO3 [ARTESUNATE]
[1]
  Activity: inactive
[3]
  Activity: 96.9%
[4]
  Activity: 42.9%
[5]
  Activity: inactive
[6]
  Activity: inactive
[7]
  Activity: Active
[8]
  Activity: Active
